Reference: patent US11020358B2, “Method for the anti-senescence of and/or rejuvenating stem cells” (GWO XI STEM CELL APPLIED TECHNOLOGY CO., LTD., priority 2014, dated 2021)

Columns and labels:
SIRT1 gene = experiment: Quantitative RT-PCR of SIRT1 gene in ADSCs; assay type: cell-based, human
Procedure: Four portions of equal volume of the above culture medium containing the sub-cultured ADSCs were separately handled by adding thereinto H2O2 (purchased from Sigma-Aldrich) at a final concentration of 100 μM and reacting for 2 hours to induce senescence of the ADSCs, replacing the culture medium with a fresh culture medium, adding thereinto TC (trans-cinnamaldehyde, purchased from Sigma-Aldrich) at a final concentration of 0, 2, 4 or 6 μM and reacting for 6 hours, so as to obtain “H2O2 group (i.e., treated with H2O2 for 2 hours, but not treated with TC),” “H2O2+TC2 group (i.e., treated with H2O2 for 2 hours and then treated with 2 μM of TC for 6 hours),” “H2O2+TC4 group (i.e., treated with H2O2 for 2 hours and then treated with 4 μM of TC for 6 hours),” and “H2O2+TC6 group (i.e., treated with H2O2 for 2 hours and then treated with 6 μM of TC for 6 hours)” ADSCs.
Five portions of equal volume of the above culture medium containing the sub-cultured ADSCs were separately handled by adding thereinto with H2O2 at a final concentration of 100 μM and reacting for 2 hours to induce senescence of the ADSCs. Then, the culture medium in each of the five portions was replaced with a fresh culture medium. The first portion was handed by adding thereinto TC at a final concentration of 6 μM and reacting for 6 hours to obtain “TC6H group” ADSCs. The second to fifth portions were handled by adding thereinto TC at a final concentration of 6 μM, reacting for 6 hours, and then transferring and incubating the ADSCs in DMEM for 12, 24, 48 and 72 hours respectively to obtain “TC12H group,” “TC24H group,” “TC48H group” and “TC72H group” ADSCs. […]
Each of the cDNA of ADSCs of different groups from Experiment (3-1) was handled as follows. […] The mixture was then placed in a real-time quantitative PCR machine (ABI prism 7700 sequence detection system) to perform a reaction for quantifying the gene expression levels. […]

ADSCs = experiment: Osteogenic differentiation assay; assay type: cell-based, human; conditions: H2O2 group ADSCs (100 μM 2 h), compared to untreated group
Procedure: Four portions of equal volume of the above culture medium containing the sub-cultured ADSCs were separately handled by adding thereinto H2O2 (purchased from Sigma-Aldrich) at a final concentration of 100 μM and reacting for 2 hours to induce senescence of the ADSCs, replacing the culture medium with a fresh culture medium, adding thereinto TC (trans-cinnamaldehyde, purchased from Sigma-Aldrich) at a final concentration of 0, 2, 4 or 6 μM and reacting for 6 hours, so as to obtain “H2O2 group (i.e., treated with H2O2 for 2 hours, but not treated with TC),” “H2O2+TC2 group (i.e., treated with H2O2 for 2 hours and then treated with 2 μM of TC for 6 hours),” “H2O2+TC4 group (i.e., treated with H2O2 for 2 hours and then treated with 4 μM of TC for 6 hours),” and “H2O2+TC6 group (i.e., treated with H2O2 for 2 hours and then treated with 6 μM of TC for 6 hours)” ADSCs. […] After being photographed, the absorbance at a wavelength of 450 nm (i.e., OD450) of each sample was measured to figure out the effect of H2O2 and/or TC on the osteogenic differentiation capacity of ADSCs.

Structure (SMILES)	expression levels of SIRT1 gene (quantitative RT-PCR) (SIRT1 gene; ADSCs treated only with 2, 4 and 6 μM TC 6 h (FIG. 5A))	time for which the effect of TC on increasing SIRT1 gene expression is maintained (SIRT1 gene; H2O2-senescent ADSCs, 6 μM TC 6 h, then incubated in DMEM 12-72 h, no significant difference to TC6H group)	expression levels of SIRT1 gene (quantitative RT-PCR) (SIRT1 gene; H2O2-senescent ADSCs, 2, 4 and 6 μM TC 6 h, compared to H2O2 group (FIG. 5B))	cell number after osteogenic differentiation (OD450) (ADSCs)
O=C/C=C/c1ccccc1 [TC, trans-cinnamaldehyde]	significantly increased along with the increment in the concentration of TC	at least 72 hours	significantly increased along with the increment in the concentration of TC	
OO [H2O2, reference compound]				significantly reduced
